From patent US12595254B2, “Crystal form of Resmetirom, preparation method therefor, and use thereof” (CRYSTAL PHARMACEUTICAL (SUZHOU) CO., LTD., priority 2020, dated 2026)
In brackets after ≈: the same amount, converted by molar mass. Entries after “also recorded” stand apart in the source; their conditions may differ. Like-named read-outs stand apart in the source and are kept apart here. One block for each molecule: values may come before it.

Legend:
[1] = Physicochemical stability of drug substance on storage (XRPD, HPLC); details: for Chemical purity during storage / Time for which crystalline state doesn't change / kept stable: open and sealed package
Experimental: An appropriate amount of Form CSVI were stored under different conditions of 25° C./60% RH and 40° C./75% RH. Crystalline form and chemical purity were checked by XRPD and HPLC, respectively.

[2] = Flowability (compressibility index); assay type: physicochemical
Experimental: Compressibility index is usually utilized to evaluate the flowability of powder or granules during the drug product process. Compressibility index test method is as follows: a certain amount of powder was added into a measuring cylinder and bulk volume was recorded. Then the powder was tapped to make it in the tightest state and the tapped volume was recorded.
The bulk density (ρ0), tapped density (ρf) were calculated and compressibility index was calculated according to c=(ρf−π0)/ρf.

Grinding stability = assay type: physicochemical; details: ground manually in a mortar
Experimental: Solid sample of Form CSVI was ground manually for 5 minutes in a mortar.

[3] = Pressure stability (tableting, XRPD); assay type: physicochemical
Experimental: ENERPAC manual tablet press was used for compression. 20 mg of Form CSVI were compressed into tablets under different pressures with the dies of a 16 mm round tooling. Crystalline form before and after tableting were checked by XRPD.

[4] = Stability of crystalline form in drug product process; assay type: physicochemical; details: XRPD, tablet per Tables 11 and 12
Excerpt: The formulation and preparation process of Form CSVI are shown in Table 11 and Table 12, respectively.

[5] = Compressibility (tensile strength of compressed tablet); assay type: physicochemical; details: for Diameter / Hardness / Thickness / Tensile strength: 80 mg compressed at 10 KN; for Diameter / Hardness / Thickness: after 24 h at room temperature; for Tensile strength: T=2H/πDL
Experimental: ENERPAC manual tablet press was used for compression. 80 mg of Form CSVI and Form I in the prior art were weighed and added into the dies of a 16 mm round tooling, compressed at 10 KN manually, then stored at room temperature for 24 h until complete elastic recovery, diameter (D) and thickness (L) were tested with caliper. Hardness (H) was tested with an intelligent tablet hardness tester. Tensile strength of the powder was calculated with the following formula: T=2H/πDL. Under a certain force, the greater the tensile strength, the better the compressibility.

[6] = Hygroscopicity by dynamic vapor sorption (DVS); assay type: physicochemical; details: for Weight gain: DVS
Experimental: Dynamic Vapor Sorption (DVS) was measured via an SMS (Surface Measurement Systems Ltd.) intrinsic DVS instrument. The instrument control software is DVS-Intrinsic control software. Typical Parameters for DVS test are as follows: • Temperature: 25° C. • Gas and flow rate: N2, 200 mL/min • RH range: 0% RH to 95% RH
Dynamic vapor sorption (DVS) analyzer was applied to evaluate the hygroscopicity of Form CSVI and Form I in the prior art with an appropriate amount. The weight gains at each relative humidity were recorded in a cycle of 0-95%-0 RH.

[7] = Adhesiveness (amount sticking to the punch); assay type: physicochemical; details: 30 mg, Φ8 mm tooling, 10 KN held for 30 s
Experimental: 30 mg of Form CSVI and Form I in the prior art were weighed and then added into the dies of Φ8 mm round tooling, compressed at 10 KN and held for 30 s. The punch was weighed and amount of material sticking to the punch was calculated. The maximum amount and average amount of material sticking to the punch during the compression were recorded.

[8] = Solubility in simulated gastric fluid (SGF), HPLC; assay type: physicochemical
Experimental: When solubility test is used to predict the in vivo performance of a drug, it is critical to simulate in vivo conditions as closely as possible. Simulated gastric fluid (SGF) can be used to simulate the condition in vivo and predict the effects of eating, thus solubility in this medium is closer to that in vivo. 15 mg of Form CSVI was suspended into 2.0 mL of SGF. After equilibrated for 1 h at 37° C., concentrations of the saturated solutions were measured by HPLC.

- Purity ([1]; 25° C./60% RH Open, 6 months): 99.73%
- Solid Form ([1]; 25° C./60% RH Open, 6 months): Form CSVI
- Purity ([1]; 25° C./60% RH Sealed, 6 months): 99.74%
- Solid Form ([1]; 25° C./60% RH Sealed, 6 months): Form CSVI
- Chemical purity during storage ([1]; 25° C./60% RH): above 99.7%
- Time for which crystalline state doesn't change / kept stable ([1]; 25° C./60% RH): at least 6 months
- Purity ([1]; 40° C./75% RH Open, 6 months): 99.73%
- Solid Form ([1]; 40° C./75% RH Open, 6 months): Form CSVI
- Purity ([1]; 40° C./75% RH Sealed, 6 months): 99.73%
- Solid Form ([1]; 40° C./75% RH Sealed, 6 months): Form CSVI
- Chemical purity during storage ([1]; 40° C./75% RH): above 99.7%
- Time for which crystalline state doesn't change / kept stable ([1]; 40° C./75% RH): at least 6 months
- Purity ([1]; Initial): 99.73%
- Solid Form ([1]; Initial): Form CSVI
- Stability under different pressures (in words) ([3]; 3, 7, 14 kN): good stability under different pressures
- Solid form after tableting ([3]; Pressure 3 kN): Form CSVI
- Solid form after tableting ([3]; Pressure 7 kN): Form CSVI
- Solid form after tableting ([3]; Pressure 14 kN): Form CSVI
- Crystalline form before and after the formulation process [4]: remained stable
- Compressibility (in words) [5]: better compressibility
- Diameter [5]: 6.06 mm
- Hardness [5]: 13.4 N
- Thickness [5]: 2.05 mm
- Tensile strength [5]: 0.69 MPa
- Weight gain ([6]; 25° C./80% RH): 0.07%
- Crystal form after DVS test ([6]; XRPD before and after DVS): does not change
- Hygroscopicity (in words) ([6]; from weight gain at 25° C./80% RH): non or almost non hygroscopic
- Average amount sticking to the punch [7]: 0.05 mg
- Maximum amount sticking to the punch [7]: 0.10 mg
- Solubility of Form CSVI relative to Form I in the prior art ([8]; SGF, 1 h): about 2 times
- solubility at 1 h ([8]; simulated gastric fluid (SGF), simulated gastric fluid, thermodynamic from solid, SGF, equilibrated for 1 h at 37° C.): 2.1 µg/mL (≈ 4.83 µM)
SMILES: CC(C)c1cc(Oc2c(Cl)cc(-n3nc(C#N)c(=O)[nH]c3=O)cc2Cl)n[nH]c1=O [Form CSVI, 2-(3,5-dichloro-4-((5-isopropyl-6-oxo-1,6-dihydropyridazin-3-yl)oxy)phenyl)-3,5-dioxo-2,3,4,5-tetrahydro-1,2,4-triazine-6-carbonitrile]
- Flowability compared with Form I in the prior art [2]: superior to that of Form I in the prior art
- Grinding stability (in words) (Grinding stability): remained stable; also recorded: doesn't change after grinding

- Flowability ([2]; class by compressibility index, ICH Q4B Annex 13): very poor
- Diameter [5]: 6.06 mm
- Hardness [5]: 7.4 N
- Thickness [5]: 2.12 mm
- Tensile strength [5]: 0.37 MPa
- Compressibility (in words) ([5]; listed as crystalline form I): poor compressibility
- Weight gain of Form I relative to Form CSVI ([6]; 25° C./80% RH): about 2 times
- Weight gain ([6]; 25° C./80% RH): 0.13%
- Average amount sticking to the punch [7]: 0.25 mg
- Maximum amount sticking to the punch [7]: 0.30 mg
- Solubility (in words) ([8]; inventors' evaluation of repeated Form I): low solubility
SMILES: CC(C)c1cc(Oc2c(Cl)cc(-n3nc(C#N)c(=O)[nH]c3=O)cc2Cl)n[nH]c1=O [Form I in the prior art, 2-(3,5-dichloro-4-((5-isopropyl-6-oxo-1,6-dihydropyridazin-3-yl)oxy)phenyl)-3,5-dioxo-2,3,4,5-tetrahydro-1,2,4-triazine-6-carbonitrile, reference compound]
- Grinding stability (in words) (Grinding stability; listed as crystalline form I): most of the crystalline form I transform to amorphous after grinding

- Hygroscopicity (in words) ([6]; according to WO2020010068A1 and the inventors' experimental study, conditions not given): high hygroscopicity
SMILES: CC(C)c1cc(Oc2c(Cl)cc(-n3nc(C#N)c(=O)[nH]c3=O)cc2Cl)n[nH]c1=O [crystalline form F, reference compound]
